In PubChem BioAssay (NCI) one finds GI50 and TGI data, which are given here for ten molecules.

Test systems include SNB-19 CNS; HCC-2998 colon; HOP-92 NSCLC; SW-620 colon; K-562 leukemia; MDA-MB-231 breast; MDA-MB-435; RXF 393 renal.
What all share (test): NCI anticancer screen, dose series, 48 h

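Compound exposure: 48 hours, 5 concentrations, 96-well plates. The concentration for 50% growth inhibition is given as GI50. TGI: concentration producing complete growth inhibition.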

With `O=C(NCCOCCOCCOCCNC(=O)c1cc2c(o1)C(=O)c1ccccc1C2=O)NC12CC3CC(CC(C3)C1)C2`, the GI50 in the assay with SNB-19 CNS was 2.06 µM; in the assay with HCC-2998 colon, 1.99 µM; in the assay with HOP-92 NSCLC it was 3.08 µM; in the assay on SW-620 colon, 2.35 µM; in the assay on K-562 leukemia it was 1.98 µM; in the assay on MDA-MB-231 breast, 3.04 µM. Moreover, the GI50 was 0.388 µM with MDA-MB-435 and 1.58 µM with RXF 393 renal. The TGI in the assay with SNB-19 CNS came out at 8.03 µM; in the assay with HCC-2998 colon it was 4.02 µM; with HOP-92 NSCLC, 10.7 µM; in the assay with SW-620 colon, 7.26 µM; with K-562 leukemia, 8.91 µM; in the assay with MDA-MB-231 breast it was 16.6 µM. Moreover, the values for the TGI in the assay with MDA-MB-435 and with RXF 393 renal were 1.36 µM and 3.05 µM, respectively.
For `Cc1nc2sc3c(N)ncnc3c2c(C)c1C`, the GI50 with SNB-19 CNS, with HCC-2998 colon, in the assay on HOP-92 NSCLC, in the assay with SW-620 colon, in the assay with K-562 leukemia and in the assay with MDA-MB-231 breast was greater than 25 µM throughout. The GI50 with MDA-MB-435 and with RXF 393 renal was greater than 25 µM in each case. For the same molecule, the TGI with SNB-19 CNS, in the assay on HCC-2998 colon, with HOP-92 NSCLC, in the assay on SW-620 colon, in the assay with K-562 leukemia and in the assay on MDA-MB-231 breast was greater than 25 µM in each case. Also, the TGI in the assay on MDA-MB-435 and in the assay on RXF 393 renal was greater than 25 µM in each case.
Take `CC(=O)/C(Br)=C/c1ccc(Br)o1`: the GI50 with SNB-19 CNS is 26 µM; in the assay with HCC-2998 colon it was 19 µM; in the assay on HOP-92 NSCLC it was 8.63 µM; with SW-620 colon, 2.1 µM; in the assay on K-562 leukemia, 2.99 µM; with MDA-MB-231 breast it was 14.8 µM. Moreover, the figures for the GI50 with MDA-MB-435 and with RXF 393 renal were 8.51 µM and 2.86 µM, respectively. Also, the TGI in the assay on SNB-19 CNS is greater than 59.6 µM; in the assay on HCC-2998 colon, 36.7 µM; with HOP-92 NSCLC, 23.9 µM; with SW-620 colon, 4.87 µM; in the assay on K-562 leukemia, greater than 36.5 µM; in the assay with MDA-MB-231 breast, 30 µM. Also, the TGI in the assay with MDA-MB-435 was found to be 23.2 µM; with RXF 393 renal, 11 µM.
Take `CCCCCCCCCCCCN=C(N)c1ccc(N2CCN(c3ccc(C(N)=NCCCCCCCCCCCC)cc3)CC2)cc1`: the GI50 in the assay on SNB-19 CNS was 11 µM; in the assay on HCC-2998 colon, 8.67 µM; in the assay on HOP-92 NSCLC, 0.614 µM; in the assay on SW-620 colon, 9.31 µM; with K-562 leukemia, 6.82 µM; in the assay on MDA-MB-231 breast, 10.3 µM. Also, the GI50 was 9.4 µM in the assay with MDA-MB-435 and 9.54 µM in the assay on RXF 393 renal. For the same molecule, the TGI with SNB-19 CNS was 20.5 µM; with HCC-2998 colon, 17 µM; with HOP-92 NSCLC it was 2.86 µM; in the assay with SW-620 colon it was 28.1 µM; in the assay on K-562 leukemia, greater than 50 µM; in the assay with MDA-MB-231 breast, 20 µM. The TGI in the assay on MDA-MB-435 is 19.4 µM; with RXF 393 renal it was 37.6 µM.
On to `CCOC(=O)c1c(C)nc2c(c1N)/C(=C/c1ccccn1)C(=O)N2Cc1ccccc1`, for which the GI50 was 1.09 µM in the assay on SNB-19 CNS; 0.895 µM in the assay with HCC-2998 colon; 0.903 µM in the assay with HOP-92 NSCLC; 1 µM with SW-620 colon; 1.77 µM with K-562 leukemia; 0.95 µM with RXF 393 renal. In addition, the TGI in the assay on SNB-19 CNS was 2.49 µM; in the assay with HCC-2998 colon, 1.77 µM; with HOP-92 NSCLC, 1.86 µM; in the assay on SW-620 colon, 2.31 µM; in the assay on K-562 leukemia it was greater than 50 µM; in the assay with RXF 393 renal it was 1.79 µM.
Consider `COc1ccccc1[As]=[As]c1ccccc1OC` (centres undefined), for which the GI50 in the assay with SNB-19 CNS was 0.065 µM; in the assay on HCC-2998 colon, 0.0785 µM; with HOP-92 NSCLC it was 0.102 µM; with SW-620 colon, 0.0182 µM; with K-562 leukemia, 0.0324 µM; with MDA-MB-231 breast, 0.0564 µM. The GI50 with MDA-MB-435 was 0.0511 µM; in the assay on RXF 393 renal it was 0.0257 µM. The TGI worked out at 0.193 µM in the assay with SNB-19 CNS; 0.218 µM with HCC-2998 colon; 0.228 µM in the assay on HOP-92 NSCLC; 0.0403 µM with SW-620 colon; 0.182 µM in the assay with MDA-MB-231 breast; 0.196 µM in the assay on MDA-MB-435. This molecule also showed a TGI in the assay on RXF 393 renal of 0.0644 µM.
With `Oc1ccc(C(O)(c2ccccc2)c2ccccc2)c2ccccc12`, the TGI in the assay with SNB-19 CNS was found to be 19.8 µM; in the assay with HOP-92 NSCLC it was 5.22 µM; with SW-620 colon, 9.64 µM; in the assay on K-562 leukemia, 23.5 µM; in the assay with MDA-MB-231 breast it was 5.27 µM; with MDA-MB-435, 6.01 µM. This molecule also showed a TGI with RXF 393 renal greater than 100 µM.
In the case of `CCC(=O)N1C/C(=C/c2ccc(Br)cc2)C(=O)/C(=C/c2ccc(Br)cc2)C1`, the GI50 in the assay on SNB-19 CNS was 0.995 µM; with HCC-2998 colon, 0.802 µM; in the assay with HOP-92 NSCLC, 1.69 µM; with SW-620 colon it was 0.22 µM; in the assay on K-562 leukemia it was 0.183 µM; with MDA-MB-231 breast, 0.76 µM. The GI50 in the assay with MDA-MB-435 was 0.524 µM; with RXF 393 renal, 0.22 µM. The TGI in the assay on SNB-19 CNS amounted to 2.9 µM; in the assay on HCC-2998 colon, 2.09 µM; with HOP-92 NSCLC it was 4.13 µM; in the assay with SW-620 colon, 0.82 µM; in the assay with K-562 leukemia, 6.1 µM; in the assay with MDA-MB-231 breast, 2.36 µM. The TGI in the assay with MDA-MB-435 stood at 1.46 µM; with RXF 393 renal it was 0.522 µM.
For `CCN(CC)CCN1c2nc3ccccc3cc2Sc2cc3ccccc3nc21`, the GI50 in the assay on SNB-19 CNS is 3.03 µM; in the assay on HCC-2998 colon, 1.69 µM; in the assay on HOP-92 NSCLC it was 0.869 µM; with SW-620 colon it was 1.53 µM; in the assay with K-562 leukemia, 3.04 µM; with MDA-MB-231 breast it was 1.58 µM. For the same molecule, the values for the GI50 in the assay with MDA-MB-435 and with RXF 393 renal were 1.8 µM and 3.78 µM, respectively. Also, the TGI with SNB-19 CNS is 11.9 µM; in the assay with HCC-2998 colon, 3.72 µM; in the assay on HOP-92 NSCLC it was 3.2 µM; in the assay with SW-620 colon it was 2.99 µM; in the assay on K-562 leukemia, greater than 100 µM; in the assay with MDA-MB-231 breast, 4.03 µM. In addition, the TGI in the assay on MDA-MB-435 came out at 3.97 µM; in the assay on RXF 393 renal it was 18 µM.
With `O=C1Nc2ccccc2/C1=C\c1nc(-c2ccccc2F)n2ccccc12`, the GI50 with SNB-19 CNS is 4.7 µM; with HCC-2998 colon, 55.2 µM; in the assay with SW-620 colon, 3.97 µM; in the assay with K-562 leukemia it was 6.35 µM; with MDA-MB-231 breast, 2.27 µM; in the assay on MDA-MB-435 it was 3.95 µM. Also, the GI50 with RXF 393 renal was 3.14 µM. For the same molecule, the TGI in the assay on SNB-19 CNS is 16.7 µM; with HCC-2998 colon, greater than 100 µM; with SW-620 colon it was 14.2 µM; with K-562 leukemia, 19.7 µM; with MDA-MB-231 breast, 9.07 µM; in the assay with MDA-MB-435, 16.1 µM. In the assay on RXF 393 renal, this molecule had a TGI of 10.7 µM.
